Measured values from the supplement of paper PMC10307832.

How the values were obtained:
Experiment in all cases: relative viability (nuclei count vs DMSO), 5 days (fraction); higher = more cells survive
Vismodegib + Dasatinib = compound: CS(=O)(=O)c1ccc(C(=O)Nc2ccc(Cl)c(-c3ccccn3)c2)c(Cl)c1 [Vismodegib] + Cc1nc(Nc2ncc(C(=O)Nc3c(C)cccc3Cl)s2)cc(N2CCN(CCO)CC2)n1 [Dasatinib] (partner 0.075 µM)
Method in brief: (§1)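 The day after seeding in 1536-well plates, lung cancer cell lines were treated by pin tool with a single drug, or with a fixed anchor-drug dose together with five library-drug doses (not always all listed) in √10 steps. After 5 days, a combined fix-and-stain solution (final 0.05% Triton X-100, 1% formaldehyde, 1 ug/ml Hoechst) was added. Nuclei counted on 4× images gave relative viability as treated counts over vehicle counts, reported as the median of duplicate plates.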

Vismodegib + Trametinib = compound: CS(=O)(=O)c1ccc(C(=O)Nc2ccc(Cl)c(-c3ccccn3)c2)c(Cl)c1 [Vismodegib] + CC(=O)Nc1cccc(-n2c(=O)n(C3CC3)c(=O)c3c(Nc4ccc(I)cc4F)n(C)c(=O)c(C)c32)c1 [Trametinib] (partner 0.02 µM)
Method in brief: as §1

Vismodegib + Lapatinib = compound: CS(=O)(=O)c1ccc(C(=O)Nc2ccc(Cl)c(-c3ccccn3)c2)c(Cl)c1 [Vismodegib] + CS(=O)(=O)CCNCc1ccc(-c2ccc3ncnc(Nc4ccc(OCc5cccc(F)c5)c(Cl)c4)c3c2)o1 [Lapatinib] (partner 2 µM)
Method in brief: as §1

VE-821 + Lapatinib = compound: CS(=O)(=O)c1ccc(-c2cnc(N)c(C(=O)Nc3ccccc3)n2)cc1 [VE-821] + CS(=O)(=O)CCNCc1ccc(-c2ccc3ncnc(Nc4ccc(OCc5cccc(F)c5)c(Cl)c4)c3c2)o1 [Lapatinib] (partner 2 µM)
Method in brief: as §1

Cell Line	relative viability (Vismodegib + Dasatinib; first compound 0.08 µM)	relative viability (Vismodegib + Dasatinib; first compound 0.253 µM)	relative viability (Vismodegib + Dasatinib; first compound 0.8 µM)	relative viability (Vismodegib + Dasatinib; first compound 2.53 µM)	relative viability (Vismodegib + Dasatinib; first compound 8 µM)	relative viability (Vismodegib + Trametinib; first compound 0.08 µM)	relative viability (Vismodegib + Trametinib; first compound 0.253 µM)	relative viability (Vismodegib + Trametinib; first compound 0.8 µM)	relative viability (Vismodegib + Trametinib; first compound 2.53 µM)	relative viability (Vismodegib + Trametinib; first compound 8 µM)	relative viability (Vismodegib + Lapatinib; first compound 0.253 µM)	relative viability (Vismodegib + Lapatinib; first compound 0.8 µM)	relative viability (Vismodegib + Lapatinib; first compound 2.53 µM)	relative viability (Vismodegib + Lapatinib; first compound 8 µM)	relative viability (VE-821 + Lapatinib; first compound 0.08 µM)	relative viability (VE-821 + Lapatinib; first compound 0.253 µM)	relative viability (VE-821 + Lapatinib; first compound 0.8 µM)	relative viability (VE-821 + Lapatinib; first compound 2.53 µM)	relative viability (VE-821 + Lapatinib; first compound 8 µM)	relative viability (Vismodegib + Lapatinib; first compound 0.08 µM)
NCI-H2405	0.214	0.228	0.212	0.235	0.239	0.671	0.616	0.592	0.598	0.638	1.09	0.937	0.913	1.11	1.15	0.976	1.03	1.31	1.05	–
PC-3 [JPC-3]	0.947	0.985	1.03	0.974	0.924	0.695	0.713	0.636	0.615	0.729	0.467	0.394	0.447	0.475	0.512	0.474	0.461	0.482	0.424	0.486
EBC-1	–	–	–	–	–	–	–	–	–	–	0.189	0.205	0.195	0.215	0.241	0.195	0.209	0.216	0.265	0.215
NCI-H2347	0.281	0.35	0.331	0.272	0.293	0.311	0.286	0.265	0.301	0.288	0.989	0.901	0.808	0.938	1.02	1.05	0.664	1.03	1.14	0.962
LXF-289	0.237	0.214	0.202	0.286	0.26	0.675	0.654	0.723	0.664	0.648	0.894	0.916	0.962	0.875	1.02	0.993	0.911	1.07	0.966	0.912
HCC-78	0.32	0.33	0.363	0.475	0.351	0.826	0.768	0.598	0.743	0.739	0.646	0.667	0.701	0.746	1.06	0.795	0.371	1.03	0.255	0.278
HCC-366	0.816	0.587	0.622	0.693	0.692	0.348	0.292	0.334	0.37	0.343	1.01	1.1	1.01	1	1.1	1.03	0.883	0.406	0.064	1.08
NCI-H2023	0.564	0.534	0.628	0.455	0.558	0.568	0.538	0.605	0.47	0.498	0.871	0.738	0.76	0.935	0.918	0.878	0.713	0.477	0.202	0.426
